On the set-up of series [1]: method as in PMID 18800530. The following applies: 25 °C; batch partition method (BP); ref [4]; cited from earlier work.
Series [2] can be described thus: PP-LFER solute descriptor determination from GC retention and partition coefficient data. Format: physicochemical. The settings on record: for Solute descriptor L (logarithmic hexadecane/air partition coefficient, KHxd/air): 25 °C, updated in the iterative calculation; for Solute descriptor S (dipolarity/polarizability parameter): final adjusted value, shared within a PFAS group. The text has this: The GC columns used were, from low to high polarity, HP-5ms Ultra Inert (poly[5% phenyl/95% methyl]siloxane equivalent; Agilent Technologies, Santa Clara, CA), DB-200 (poly[35% trifluoropropyl/65% methyl]siloxane; Agilent Technologies), DB-225ms (poly[50% cyanopropylphenyl/50% methyl]siloxane equivalent; Agilent Technologies), and SolGel-WAX (polyethylene glycol; Trajan, Ringwood, Australia). Column dimensions were all 30 m × 0.25 mm i.d. with a coating thickness of 0.25 μm.
The method for GC retention time measurements follows that of a previous study.[18] Briefly, a 7890A/5975C GC/MS instrument (Agilent Technologies) equipped with an MPS2 autosampler and CIS4 injector (Gerstel, Mülheim an der Ruhr, Germany) was used for all measurements. For each column, isothermal retention times were measured at four temperatures in the range of 30–120 °C to cover all target compounds. The temperature at the injector and transfer line was fixed at 120 °C. The carrier gas was He at a flow rate of 1.2 mL/min. Compounds were introduced into the GC by injecting either headspace (100–250 μL) above the pure compound or solution in acetone (1 μL). Split injections were performed with a split ratio of 20–250. Column dead time (t0) was determined by injecting air and measuring Ar (m/z 40). From the measured retention time (t), the retention factor (k) was calculated as k = (t–t0)/t0. Measurements with t < t0 + 0.1 min were considered too short and discarded. For each column and temperature, k values were obtained for 29–52 PFAS and 29–48 reference compounds.
The standard procedure for solute descriptor determination was as follows. First, the system parameters in eq 1 were calibrated for each column (or partition system) and temperature by MLR using log k (or log K) data and solute descriptors for reference compounds. Dimethylformamide, 1-pentylamine, dimethylsulfoxide, and dodecamethylcyclohexasiloxane (D6) were removed from the log k data sets, because they frequently appeared as outliers (>3 SD) of the PP-LFER model fit. Reference data sets for hexadecane/water partition coefficients (KHxd/w),[21]Kow,[22] and octanol/air partition coefficients (Koa)[23] were taken from the cited references and amended with data for organosilicon compounds.[24],[25] Similar to PFAS, organosilicon compounds have weak van der Waals interaction properties[9] and it may be beneficial to include them in reference data sets. The solute descriptors for PFAS were then back-calculated by using the calibrated PP-LFER equations. Of the five descriptors, V can be calculated from the molecular structure[26] (note: the fragment value for F from Goss et al.[11] was used), and L was available for the PFAS studied.[18] Thus, the left side of eq 2 was known, and MLR was performed to obtain S, A, and B on the right side. [drawing 2] 2 To determine the three descriptors, a minimum of three k and K data are required for a given PFAS compound. The data used here were: k measured for 60 PFAS in this study, KHxd/w for 21 PFAS,[5]Kow for 12 PFAS (see the Results and Discussion section), and Koa for 3 PFAS.[11]
Key to the accurate determination of the polar interaction descriptors is the availability of K data for partition systems with water as a partition phase because water is a strong H-bond donor and acceptor phase and thus the corresponding K values are sensitive to the H-bonding properties of the solute.[27] In particular, at least one solvent/water or air/water partition coefficient is required to determine B because there is no commonly used GC phase that is a significant H-bond donor. In the data set, KHxd/w is sensitive to both A and B and Kow is sensitive to B. However, KHxd/w and Kow data are not available for all PFAS. To increase the number of PFAS for which descriptors can be determined, the following assumptions were made. […]

Series [3] is described as follows: Octanol/water partition coefficient (Kow), shared-headspace method. Format: physicochemical. The settings on record: 25 °C; shared-headspace method (SH). Here is the method:
(§1) Kow was measured for nine PFAS (Table 2) to supplement the data set for descriptor determination. The nine PFAS were selected based on measurement feasibility and structural diversity. The shared-headspace or batch partition method was used as described previously.[5] Details of the methods are given in SI-1.

A short description of series [4]: Octanol/water partition coefficient (Kow), batch partition method. The series is classed as physicochemical. The following applies: 25 °C; batch partition method (BP). Here is the method: as §1

Where “and” joins values, the source holds several entries; their conditions need not be identical. Equal entries are not always repeated.

For the molecule `OCCC(F)(F)C(F)(F)C(F)(F)C(F)(F)F` [4:2 FTOH, 1H,1H,2H,2H-Perfluorohexan-1-ol], the “Log Kow, Mean ± SD” value in series [1] is listed as 3.30 ± 0.04. In series [2], the “Solute descriptor L (logarithmic hexadecane/air partition coefficient, KHxd/air)” value is reported as 2.421 and the “Solute descriptor S (dipolarity/polarizability parameter)” value is 0.35.
For the molecule `OCCCCC(F)(F)C(F)(F)C(F)(F)C(F)(F)F` [4:4 FTOH, 5,5,6,6,7,7,8,8,8-Nonafluorooctan-1-ol], in series [2], the “Solute descriptor L (logarithmic hexadecane/air partition coefficient, KHxd/air)” value was 3.499 and the “Solute descriptor S (dipolarity/polarizability parameter)” value is listed as 0.52. Also, the “Measured Log Kow, Mean ± SD” value in series [3] worked out at 3.54 ± 0.00.
On to `CC(O)C(F)(F)C(F)(F)C(F)(F)C(F)(F)C(F)(F)F` (stereo not drawn) [5:2s FTOH, 1H,1H,1H,2H-Perfluoroheptan-2-ol], for which, in series [2], the “Solute descriptor L (logarithmic hexadecane/air partition coefficient, KHxd/air)” value is recorded as 2.296; the “Solute descriptor S (dipolarity/polarizability parameter)” value is 0.39 and 0.39 ± 0.02. For the same molecule, the “Measured Log Kow, Mean ± SD” value in series [3] is given as 3.80 ± 0.03.
As for `FC(F)(F)C(F)(F)C(F)(F)C(F)(F)C(F)(F)C(F)(F)CI` [6:1 FTI, 1H,1H-Perfluoroheptyl iodide], in series [2], the “Solute descriptor L (logarithmic hexadecane/air partition coefficient, KHxd/air)” value was 3.382 and 3.38; the “Solute descriptor S (dipolarity/polarizability parameter)” value was 0.27 and 0.27 ± 0.02. Moreover, the “Measured Log Kow, Mean ± SD” value in series [3] is given as 5.57 ± 0.01.
As to `FC(F)C(F)(F)C(F)(F)C(F)(F)C(F)(F)C(F)(F)CI` [6:1 FTI-7H, 1H,1H,7H-Perfluoroheptyl iodide], in series [2], the “Solute descriptor L (logarithmic hexadecane/air partition coefficient, KHxd/air)” value was 3.887 and 3.89; the “Solute descriptor S (dipolarity/polarizability parameter)” value is 0.63 and 0.63 ± 0.04. Also, in series [3], the “Measured Log Kow, Mean ± SD” value came out at 4.90 ± 0.01.
Consider `OCCC(F)(F)C(F)(F)C(F)(F)C(F)(F)C(F)(F)C(F)(F)F` [6:2 FTOH, 1H,1H,2H,2H-Perfluorooctan-1-ol], for which the “Log Kow, Mean ± SD” value in series [1] is given as 4.54 ± 0.01. In series [2], the “Solute descriptor L (logarithmic hexadecane/air partition coefficient, KHxd/air)” value was 2.997 and the “Solute descriptor S (dipolarity/polarizability parameter)” value is given as 0.35.
For the molecule `OCC(F)(F)C(F)(F)C(F)(F)C(F)(F)C(F)(F)C(F)(F)C(F)(F)F` [7:1 FTOH, 1H,1H-Perfluorooctan-1-ol], in series [2], the “Solute descriptor L (logarithmic hexadecane/air partition coefficient, KHxd/air)” value was 2.715 and the “Solute descriptor S (dipolarity/polarizability parameter)” value was determined as 0.30. The “Measured Log Kow, Mean ± SD” value in series [3] was 5.01 ± 0.02.
For the molecule `OCCC(F)(F)C(F)(F)C(F)(F)C(F)(F)C(F)(F)C(F)(F)C(F)(F)C(F)(F)F` [8:2 FTOH, 1H,1H,2H,2H-Perfluorodecan-1-ol], in series [1], the “Log Kow, Mean ± SD” value was 5.58 ± 0.06. Also, in series [2], the “Solute descriptor L (logarithmic hexadecane/air partition coefficient, KHxd/air)” value was 3.554 and the “Solute descriptor S (dipolarity/polarizability parameter)” value turned out to be 0.35.
Regarding `CNS(=O)(=O)C(F)(F)C(F)(F)C(F)(F)C(F)(F)F` [MeFBSA, N-Methylperfluorobutanesulfonamide], in series [4], the “Measured Log Kow, Mean ± SD” value is listed as 3.51 ± 0.00. Moreover, in series [2], the “Solute descriptor L (logarithmic hexadecane/air partition coefficient, KHxd/air)” value is listed as 3.566 and the “Solute descriptor S (dipolarity/polarizability parameter)” value worked out at 0.88.
`CN(CCO)S(=O)(=O)C(F)(F)C(F)(F)C(F)(F)C(F)(F)F` [MeFBSE, N-Methylperfluorobutanesulfonamidoethanol]: the “Measured Log Kow, Mean ± SD” value in series [4] amounted to 3.11 ± 0.04. In addition, in series [2], the “Solute descriptor L (logarithmic hexadecane/air partition coefficient, KHxd/air)” value is reported as 4.769 and the “Solute descriptor S (dipolarity/polarizability parameter)” value stood at 1.00.
For `NS(=O)(=O)C(F)(F)C(F)(F)C(F)(F)C(F)(F)F` [PFBSA, Perfluorobutanesulfonamide], in that order: 2.85 ± 0.02, 3.607 and 0.96.

Values taken from PMC10653080, “Intermolecular Interactions, Solute Descriptors, and Partition Properties of Neutral Per- and Polyfluoroalkyl Substances (PFAS)” (Environmental Science & Technology, 2023).
